Experimental data taken from patent US5808065A, “Pyridazinone derivatives and processes for preparing the same” (Tanabe Seiyaku Co., Ltd., priority 1995, dated 1998).

Tests used:
[1] = Side Effect to Circulatory System (normal awakened rats, tail-cuff method); format: in vivo; settings: 30 mg/kg/10 ml orally, before and 2 hours after administration
Experimental: One experimental group consisted of 4 rats. Each compound to be tested was suspended in purified water by using a small amount of Tween 80 (trade name, produced by Nacalai Tesque Co.), and a dose of 30 mg/kg/10 ml was administered orally to normal awakened rats. Systolic blood pressures and heart rates before administration and 2 hours after administration were examined. The systolic blood pressures and the heart rates were measured by the tail-cuff method (KN-210, trade name, produced by Natsume Seisakusho) under conditions of pretreatment at 40° C. for 15 minutes.
According to the following equations, the respective changing rates were calculated. [formula]

[2] = Antinephritic Action (protein excretion inhibition in nephritis induced with nephrotoxic serum (NTS)); format: in vivo, male WKY rats; settings: 30 mg/kg/10 ml orally twice a day for 8 days; urine collected for 24 hours on the seventh day; 6 rats per group
Experimental: Rabbits were immunized several times with an adjuvant and a renal glomerular basement membrane fraction obtained from WKY rats, and then whole blood was collected from the rabbits to obtain a nephrotoxic serum (NTS). This NTS was diluted by 50 times with physiological saline, and to male WKY rats of 8 weeks old, 2.5 ml of the diluted NTS per 1 kg of body weight was injected intravenously to induce nephritis. To a normal group, the same amount of physiological saline was administered intravenously. One experimental group consisted of 6 rats. Each compound to be tested was suspended in purified water by using a small amount of Tween 80 (trade name, produced by Nacalai Tesque Co.), and a dose of 30 mg/kg/10 ml was orally administered twice a day for continuous 8 days. To a normal group and a control group, the same amount of purified water was administered orally. On the seventh day, the rats were placed in a metabolic cage, and urine was collected for 24 hours. By measuring the concentrations of protein in urine by the sulfosalicylic acid method, the amounts of excreted protein (mg/day) were determined, and protein excretion-inhibiting rates were calculated by the following equation. [formula]

mice = assay: Toxicity (death of mice observed for 3 days); format: in vivo
From the text: The desired compound (I) of the present invention has low toxicity.

| Compound | Heart rate-changing rate [1] | Systolic blood pressure-changing rate [1] | Inhibition rate (protein excretion-inhibiting rate) [2] [%] | death (mice; mouse, in vivo, ip, 300 mg/kg) | death (mice; orally, 1,000 mg/kg, observed for 3 days) |
| --- | --- | --- | --- | --- | --- |
| O=C(NCCCCc1ccc(-c2ccc(=O)[nH]n2)cc1)c1cccnc1 [Example 30, 6-[4-(4-(pyridin-3-ylcarbonylamino)butyl)phenyl]pyridazin-3(2H)-one] | 3 Δ% | -2 Δ% | 82.5 | – | – |
| O=C(NCCCc1ccc(-c2ccc(=O)[nH]n2)cc1)c1cccnc1 [Example 31] | 7 Δ% | 0 Δ% | – | – | – |
| Cc1ncccc1C(=O)NCCCCc1ccc(-c2ccc(=O)[nH]n2)cc1 [Example 32] | 5 Δ% | -2 Δ% | 64.3 | – | – |
| Nc1ncccc1C(=O)NCCCCc1ccc(-c2ccc(=O)[nH]n2)cc1 [Example 33] | 2 Δ% | 1 Δ% | 85.7 | – | – |
| O=C(NCCCOc1ccc(-c2ccc(=O)[nH]n2)cc1)c1cccnc1 [Example 36, 6-[4-(3-(pyridin-3-ylcarbonylamino)propoxy)phenyl]pyridazin-3(2H)-one] | 1 Δ% | 0 Δ% | 89.0 | – | – |
| C=CS(=O)(=O)NCCCc1ccc(-c2ccc(=O)[nH]n2)cc1 [Example 52-(4), 6-[4-(3-vinylsulfonylaminopropyl)phenyl]-pyridazin-3(2H)-one] | – | – | 74.6 | – | – |
| Cl.O=C(NCCCCc1ccc(-c2ccc(=O)[nH]n2)cc1)c1cccnc1 [Example 69, 6-[4-(4-(pyridin-3-ylcarbonylamino)butyl)phenyl]pyridazin-3(2H)-one hydrochloride] | – | – | 82.2 | no case of death was observed | no case of death was observed |
| Nc1ncccc1C(=O)NCCCCc1ccc(-c2ccc(=O)[nH]n2)cc1 [Example 70] | – | – | 74.1 | – | – |
| CC1CC(=O)NN=C1c1ccc(CCNC(=O)c2cccnc2)cc1 (stereo not drawn) [Known compound, 5-methyl-6-(4-[2-(pyridin-3-ylcarbonylamino)ethyl]phenyl)-4,5-dihydropyridazin-3 (2H)-one, reference compound] | 18 Δ% | -7 Δ% | – | – | – |
